Reference: ChEMBL document CHEMBL3763013, “Prospective of curcumin, a pleiotropic signalling molecule from Curcuma longa in the treatment of Glioblastoma” (Eur J Med Chem, 2016)

Tests used:
Plasma [1] = assay: Drug metabolism in human plasma assessed as compound glucuronide conjugate at 3.6 g/day, po measured after 0.5 and 1 hr; format: ADME, organism-based
[2] = Half life in human at 12 g, po administered as single dose; format: ADME, organism-based; conditions: in vivo
[3] = Drug uptake in human serum at 8 g/day, po administered for 3 months; format: ADME, organism-based; conditions: read-out: Drug uptake
[4] = Drug uptake in human malignant colorectal tissue at 3.6 g/day, po; format: ADME
[5] = Drug metabolism in human urine assessed as compound sulfate conjugate at 3.6 g/day, po measured after 0.5 and 1 hr; format: ADME, organism-based; conditions: in vivo
Homo sapiens = assay: Drug metabolism in human assessed as ratio of glucuronide to sulfate at 10 and 12 g, po administered as single dose; format: ADME, organism-based; conditions: in vivo
[6] = Drug excretion in human urine at 3.6 g/day, po; format: ADME, tissue-based
[7] = Tmax in human at 10 g, po administered as single dose; format: ADME, organism-based; conditions: in vivo
Plasma [8] = assay: Drug metabolism in human plasma assessed as compound sulfate conjugate at 3.6 g/day, po measured after 0.5 and 1 hr; format: ADME, organism-based
[9] = Cmax in human at 10 g, po administered as single dose; format: ADME, organism-based; design: dose 10 g, route oral; conditions: in vivo
[10] = Plasma concentration in human at 3.6 g/day, po measured after 0.5 and 1 hr; format: ADME, organism-based
[11] = Half life in human at 10 g, po administered as single dose; format: ADME, organism-based; conditions: in vivo
Plasma [12] = assay: Plasma concentration in human at 2 g, po; format: ADME
[13] = Drug uptake in human serum at 6 g/day, po administered for 3 months; format: ADME, organism-based; conditions: read-out: Drug uptake
[14] = Drug metabolism in human urine assessed as compound glucuronide conjugate at 3.6 g/day, po measured after 0.5 and 1 hr; format: ADME, organism-based; conditions: in vivo
U138MG = assay: Inhibition of PI3K in human U138MG cells assessed as decrease in phosphorylated AKT level by western blot analysis; format: cell-based
[15] = Cmax in human at 12 g, po administered as single dose; format: ADME, organism-based; design: dose 12 g, route oral; conditions: in vivo
[16] = Drug uptake in human serum at 4 g/day, po administered for 3 months; format: ADME, organism-based; conditions: read-out: Drug uptake
[17] = Drug uptake in human normal colorectal tissue at 3.6 g/day, po; format: ADME
[18] = Tmax in human at 12 g, po administered as single dose; format: ADME, organism-based; conditions: in vivo

## COc1cc(/C=C/C(=O)CC(=O)/C=C/c2ccc(O)c(OC)c2)ccc1O [CURCUMIN]
Plasma [1]
  Drug metabolism: 15.8 nmol/L
[2]
  half-life: 406 min
[3]
  concentration at 3 months: 1770 nM
[4]
  Drug uptake: 7.7 nmol/g
[5]
  Drug metabolism: 19 nmol/L
Homo sapiens
  Ratio: 1.92
[6]
  Drug excretion: 0.1 µmol/L
[7]
  Tmax: 3.29 h
Plasma [8]
  Drug metabolism: 8.9 nmol/L
[9]
  Cmax: 2300 ng/mL
[10]
  concentration at 1 h: 11.1 nM
[11]
  half-life: 406 min
Plasma [12]
  Cp: 10 ng/mL
[13]
  concentration at 3 months: 630 nM
[14]
  Drug metabolism: 210 nmol/L
U138MG
  inhibition: 80%
[15]
  Cmax: 1730 ng/mL
[16]
  concentration at 3 months: 510 nM
[17]
  Drug uptake: 12.7 nmol/g
[18]
  Tmax: 3.29 h
